Test system: MV-4-11 cells
Assay: Gene expression microarray analysis (Affymetrix PrimeView) and GSEA
Assay type: cell-based, human
Design: RFU PODN (11730768_x_at) / Fold change /veh PODN (11730768_x_at) / RFU LINC00158 (11744669_a_at) / Fold change /veh LINC00158 (11744669_a_at) / RFU DUSP10 (11751237_a_at) / Fold change /veh DUSP10 (11751237_a_at) / RFU ID3 (11757404_x_at) / Fold change /veh ID3 (11757404_x_at) / RFU PLEKHG5 (11737974_s_at) / Fold change /veh PLEKHG5 (11737974_s_at) / RFU LRRC4B (11730491_at) / Fold change /veh LRRC4B (11730491_at) / RFU GIMAP4 (11747438_a_at) / Fold change /veh GIMAP4 (11747438_a_at) / RFU KRT8 (11758183_x_at) / Fold change /veh KRT8 (11758183_x_at) / RFU CNN1 (11734310_a_at) / Fold change /veh CNN1 (11734310_a_at) / RFU VPS37D (11726825_at) / Fold change /veh VPS37D (11726825_at) / RFU C10orf10 (11716522_x_at) / Fold change /veh C10orf10 (11716522_x_at) / RFU KIR2DL2 /// KIR2DL4 /// KIR2DL5A /// KIR2DL5B /// KIR2DS1 /// KIR2DS2 /// KIR2DS3 /// KIR2DS4 /// KIR3DL3 /// KIR3DL3 /// KIR3DS1 (11738374_at) / Fold change /veh KIR2DL2 /// KIR2DL4 /// KIR2DL5A /// KIR2DL5B /// KIR2DS1 /// KIR2DS2 /// KIR2DS3 /// KIR2DS4 /// KIR3DL3 /// KIR3DL3 /// KIR3DS1 (11738374_at) / RFU C1QL1 (11718748_at) / Fold change /veh C1QL1 (11718748_at) / RFU TMPRSS4 (11747572_a_at) / Fold change /veh TMPRSS4 (11747572_a_at) / RFU HAMP (11756126_x_at) / Fold change /veh HAMP (11756126_x_at) / RFU RNFT2 (11725882_a_at) / Fold change /veh RNFT2 (11725882_a_at) / RFU NR4A2 (11747474_a_at) / Fold change /veh NR4A2 (11747474_a_at) / RFU ABCC12 (11746883_a_at) / Fold change /veh ABCC12 (11746883_a_at) / RFU TMEM136 (11760407_x_at) / Fold change /veh TMEM136 (11760407_x_at) / RFU CLDN22 /// WWC2 (11732394_at) / Fold change /veh CLDN22 /// WWC2 (11732394_at) / RFU HLA-DPB1 (11760878_x_at) / Fold change /veh HLA-DPB1 (11760878_x_at) / RFU SPINT1 (11716480_a_at) / Fold change /veh SPINT1 (11716480_a_at) / RFU GAP43 (11754022_s_at) / Fold change /veh GAP43 (11754022_s_at) / RFU A4GNT (11735810_at) / Fold change /veh A4GNT (11735810_at) / RFU PRB3 (11715151_x_at) / Fold change /veh PRB3 (11715151_x_at) / RFU TUBB4B (11761932_at) / Fold change /veh TUBB4B (11761932_at) / RFU CAPN14 (11732068_a_at) / Fold change /veh CAPN14 (11732068_a_at) / RFU TMCC2 (11721928_a_at) / Fold change /veh TMCC2 (11721928_a_at) / RFU IRGQ (11745062_a_at) / Fold change /veh IRGQ (11745062_a_at) / RFU FAM174B (11720279_a_at) / Fold change /veh FAM174B (11720279_a_at) / RFU TMPRSS4 (11748680_a_at) / Fold change /veh TMPRSS4 (11748680_a_at) / RFU FAM212B (11763350_a_at) / Fold change /veh FAM212B (11763350_a_at) / RFU PLEKHG5 (11743358_a_at) / Fold change /veh PLEKHG5 (11743358_a_at) / RFU ZSCAN30 (11745921_a_at) / Fold change /veh ZSCAN30 (11745921_a_at) / RFU CMKLR1 (11741424_a_at) / Fold change /veh CMKLR1 (11741424_a_at) / RFU LOC101060620 /// MAPK8IP1 (11723275_at) / Fold change /veh LOC101060620 /// MAPK8IP1 (11723275_at) / RFU SPTSSB (11747773_x_at) / Fold change /veh SPTSSB (11747773_x_at) / RFU PRSS12 (11739890_at) / Fold change /veh PRSS12 (11739890_at) / RFU BIN1 (11741810_x_at) / Fold change /veh BIN1 (11741810_x_at) / RFU WNT11 (11732464_a_at) / Fold change /veh WNT11 (11732464_a_at) / RFU C10orf10 (11716521_a_at) / Fold change /veh C10orf10 (11716521_a_at) / RFU C5orf56 (11738089_at) / Fold change /veh C5orf56 (11738089_at) / RFU CYB561 (11721691_x_at) / Fold change /veh CYB561 (11721691_x_at) / RFU ANKRD19P (11752326_a_at) / Fold change /veh ANKRD19P (11752326_a_at) / RFU OR2T12 /// OR2T33 /// OR2T8 (11738714_s_at) / Fold change /veh OR2T12 /// OR2T33 /// OR2T8 (11738714_s_at) / RFU VCAN (11748164_a_at) / Fold change /veh VCAN (11748164_a_at) / RFU JSRP1 (11732532_at) / Fold change /veh JSRP1 (11732532_at) / RFU KRTAP10-11 (11738290_x_at) / Fold change /veh KRTAP10-11 (11738290_x_at) / RFU MYO3A (11730013_a_at) / Fold change /veh MYO3A (11730013_a_at) / RFU EBF3 (11725865_a_at) / Fold change /veh EBF3 (11725865_a_at) / RFU CAMK2N1 (11719241_x_at) / Fold change /veh CAMK2N1 (11719241_x_at) / RFU C5orf56 (11738088_a_at) / Fold change /veh C5orf56 (11738088_a_at) / RFU OLFML3 (11715873_a_at) / Fold change /veh OLFML3 (11715873_a_at) / RFU LOC100653217 /// NTM (11731650_a_at) / Fold change /veh LOC100653217 /// NTM (11731650_a_at) / RFU MAPK11 (11762145_a_at) / Fold change /veh MAPK11 (11762145_a_at) / RFU FIZ1 (11724087_x_at) / Fold change /veh FIZ1 (11724087_x_at) / RFU OASL (11726364_x_at) / Fold change /veh OASL (11726364_x_at) / RFU SOX15 (11748057_x_at) / Fold change /veh SOX15 (11748057_x_at) / RFU CD79A (11719716_a_at) / Fold change /veh CD79A (11719716_a_at) / RFU HIST1H1D (11736915_at) / Fold change /veh HIST1H1D (11736915_at) / RFU CASKIN2 (11723855_a_at) / Fold change /veh CASKIN2 (11723855_a_at) / RFU LOC730098 (11760151_x_at) / Fold change /veh LOC730098 (11760151_x_at) / RFU OR4N2 (11742367_at) / Fold change /veh OR4N2 (11742367_at) / RFU PRRT2 (11749266_a_at) / Fold change /veh PRRT2 (11749266_a_at) / RFU SNX32 (11753110_a_at) / Fold change /veh SNX32 (11753110_a_at) / RFU CDHR5 (11726645_a_at) / Fold change /veh CDHR5 (11726645_a_at) / RFU RCAN1 (11760418_a_at) / Fold change /veh RCAN1 (11760418_a_at) / RFU FAM167A (11723789_a_at) / Fold change /veh FAM167A (11723789_a_at) / RFU FAM26E (11764081_at) / Fold change /veh FAM26E (11764081_at) / RFU ISYNA1 (11749810_s_at) / Fold change /veh ISYNA1 (11749810_s_at) / RFU ACY1 (11761880_at) / Fold change /veh ACY1 (11761880_at) / RFU 11764098_at / Fold change /veh 11764098_at / RFU SAMD14 (11745864_x_at) / Fold change /veh SAMD14 (11745864_x_at) / RFU NPB (11741838_a_at) / Fold change /veh NPB (11741838_a_at) / RFU TMPRSS6 (11731388_a_at) / Fold change /veh TMPRSS6 (11731388_a_at) / RFU KRTAP10-2 (11738614_at) / Fold change /veh KRTAP10-2 (11738614_at) / RFU ARHGAP8 /// PRR5-ARHGAP8 (11727945_x_at) / Fold change /veh ARHGAP8 /// PRR5-ARHGAP8 (11727945_x_at) / RFU KRTAP5-7 /// NADSYN1 (11734609_at) / Fold change /veh KRTAP5-7 /// NADSYN1 (11734609_at) / RFU RASL12 (11751679_a_at) / Fold change /veh RASL12 (11751679_a_at) / RFU CDKN2B (11736163_a_at) / Fold change /veh CDKN2B (11736163_a_at) / RFU PRF1 (11729649_at) / Fold change /veh PRF1 (11729649_at) / RFU, ZNF638 /// ZNF638-IT1 / Fold change vs veh, ZNF638 /// ZNF638-IT1 / RFU, PANK3 / Fold change vs veh, PANK3 / RFU, SH3YL1 / Fold change vs veh, SH3YL1 / RFU, ZEB2 / Fold change vs veh, ZEB2 / RFU, NRIP1 / Fold change vs veh, NRIP1 / RFU, PTTG1IP / Fold change vs veh, PTTG1IP / RFU, CAPN2 / Fold change vs veh, CAPN2 / RFU, MED14 / Fold change vs veh, MED14 / RFU, SNORA58 / Fold change vs veh, SNORA58 / RFU, C1orf63 / Fold change vs veh, C1orf63 / RFU, LRRFIP1 / Fold change vs veh, LRRFIP1 / RFU, NDUFAF7 / Fold change vs veh, NDUFAF7 / RFU, SLC12A2 / Fold change vs veh, SLC12A2 / RFU, IBTK / Fold change vs veh, IBTK / RFU, ESF1 / Fold change vs veh, ESF1 / Fold change vs veh, TMEM50B / RFU, TAOK1 / Fold change vs veh, TAOK1 / RFU, ACBD3 / Fold change vs veh, ACBD3 / RFU, TMA16 / Fold change vs veh, TMA16 / RFU, RWDD3 / Fold change vs veh, RWDD3 / RFU, BCAT1 / Fold change vs veh, BCAT1 / RFU, EDEM3 / Fold change vs veh, EDEM3 / RFU, TMEM33 / Fold change vs veh, TMEM33 / RFU, WDR75 / Fold change vs veh, WDR75 / RFU, AHCTF1 / Fold change vs veh, AHCTF1 / RFU, TFRC / Fold change vs veh, TFRC / RFU, ZDHHC17 / Fold change vs veh, ZDHHC17 / RFU, NOM1 / Fold change vs veh, NOM1 / RFU, ARL8B / Fold change vs veh, ARL8B / RFU, ZBTB11 / Fold change vs veh, ZBTB11 / RFU, TAMM41 / Fold change vs veh, TAMM41 / RFU, KIAA1704 /// LOC100996395 / Fold change vs veh, KIAA1704 /// LOC100996395 / RFU, ING1 / Fold change vs veh, ING1 / RFU, TRMT61B / Fold change vs veh, TRMT61B / RFU, FUBP3 / Fold change vs veh, FUBP3 / RFU, TP53 / Fold change vs veh, TP53 / RFU, TNKS2 / Fold change vs veh, TNKS2 / RFU, ZFP14 / Fold change vs veh, ZFP14 / RFU, ACTR2 / Fold change vs veh, ACTR2 / RFU, PPP3R1 / Fold change vs veh, PPP3R1 / RFU, PIK3R1 / Fold change vs veh, PIK3R1 / RFU, HNRNPA1 / Fold change vs veh, HNRNPA1 / RFU, RNF170 / Fold change vs veh, RNF170 / RFU, ZNF28 / Fold change vs veh, ZNF28 / RFU, RNGTT / Fold change vs veh, RNGTT / RFU, OGT / Fold change vs veh, OGT / RFU, BRD1 / Fold change vs veh, BRD1 / RFU, MARS / Fold change vs veh, MARS / RFU, ZNF655 / Fold change vs veh, ZNF655 / RFU, FAHD1 / Fold change vs veh, FAHD1 / RFU, BDP1 / Fold change vs veh, BDP1 / RFU, LRRCC1 / Fold change vs veh, LRRCC1 / RFU, ARID1A / Fold change vs veh, ARID1A / RFU, ZNF146 / Fold change vs veh, ZNF146 / RFU, ZNF330 / Fold change vs veh, ZNF330 / RFU, GPN3 / Fold change vs veh, GPN3 / RFU, C9orf123 / Fold change vs veh, C9orf123 / RFU, N4BP2L2 / Fold change vs veh, N4BP2L2 / RFU, ARFIP1 / Fold change vs veh, ARFIP1 / RFU, FAM179B / Fold change vs veh, FAM179B / RFU, BCL10 / Fold change vs veh, BCL10 / RFU, UHRF1BP1L / Fold change vs veh, UHRF1BP1L / RFU, BET1 / Fold change vs veh, BET1 / RFU, CNOT2 / Fold change vs veh, CNOT2 / RFU, ZNF268 / Fold change vs veh, ZNF268 / Fold change vs veh, ZNF507 / RFU, DGCR2 / Fold change vs veh, DGCR2 / RFU, WDSUB1 / Fold change vs veh, WDSUB1 / Fold change vs veh, HSP90B1 /// MIR3652 / RFU, ADSS / Fold change vs veh, ADSS / RFU, GK / Fold change vs veh, GK / RFU, ZNF148 / Fold change vs veh, ZNF148 / RFU, TAF9 / Fold change vs veh, TAF9 / RFU, SLC1A5 / Fold change vs veh, SLC1A5 / RFU, SLMO2 / Fold change vs veh, SLMO2 / RFU, ABCC4 / Fold change vs veh, ABCC4 / RFU, LOC101060439 /// RAP1B / Fold change vs veh, LOC101060439 /// RAP1B / RFU, RFX7 / Fold change vs veh, RFX7 / RFU, GTPBP10 / Fold change vs veh, GTPBP10 / RFU, CNEP1R1 / Fold change vs veh, CNEP1R1 / RFU, BIVM-ERCC5 /// ERCC5 / Fold change vs veh, BIVM-ERCC5 /// ERCC5 / RFU, ILF3 / Fold change vs veh, ILF3 / RFU 11762660_at / Fold change /veh 11762660_at / RFU VCAN (11757783_s_at) / Fold change /veh VCAN (11757783_s_at) / RFU DDX43 (11728927_at) / Fold change /veh DDX43 (11728927_at) / RFU KRT8 (11758188_x_at) / Fold change /veh KRT8 (11758188_x_at) / RFU NKD1 (11759106_at) / Fold change /veh NKD1 (11759106_at) / RFU SRD5A1 (11742802_a_at) / Fold change /veh SRD5A1 (11742802_a_at) / RFU TPSAB1 /// TPSB2 (11721975_s_at) / Fold change /veh TPSAB1 /// TPSB2 (11721975_s_at) / RFU GSTM3 (11746129_a_at) / Fold change /veh GSTM3 (11746129_a_at) / RFU IL23R (11737362_x_at) / Fold change /veh IL23R (11737362_x_at) / RFU TMEM51 (11727254_a_at) / Fold change /veh TMEM51 (11727254_a_at) / RFU PIWIL2 (11732686_x_at) / Fold change /veh PIWIL2 (11732686_x_at) / RFU ORM1 (11744905_x_at) / Fold change /veh ORM1 (11744905_x_at) / RFU CCDC152 (11743942_at) / Fold change /veh CCDC152 (11743942_at) / RFU ECM1 (11717891_a_at) / Fold change /veh ECM1 (11717891_a_at) / RFU IL23R (11748794_a_at) / Fold change /veh IL23R (11748794_a_at) / RFU TNFAIP8L3 (11732012_x_at) / Fold change /veh TNFAIP8L3 (11732012_x_at) / RFU MBOAT4 (11741988_at) / Fold change /veh MBOAT4 (11741988_at) / RFU 11764193_at / Fold change /veh 11764193_at / RFU TMEM53 (11763286_at) / Fold change /veh TMEM53 (11763286_at) / RFU MAGEB2 (11727129_at) / Fold change /veh MAGEB2 (11727129_at) / RFU TMEM200A (11744735_a_at) / Fold change /veh TMEM200A (11744735_a_at) / RFU CCDC152 (11751479_a_at) / Fold change /veh CCDC152 (11751479_a_at) / RFU FAM211A (11726209_a_at) / Fold change /veh FAM211A (11726209_a_at) / RFU RGS16 (11746705_a_at) / Fold change /veh RGS16 (11746705_a_at) / RFU VCAN (11755009_s_at) / Fold change /veh VCAN (11755009_s_at) / RFU RHOB (11743442_s_at) / Fold change /veh RHOB (11743442_s_at) / RFU RGS16 (11720943_a_at) / Fold change /veh RGS16 (11720943_a_at) / RFU RGS16 (11720944_at) / Fold change /veh RGS16 (11720944_at) / RFU, VPS4B / Fold change vs veh, VPS4B / RFU, CREB1 / Fold change vs veh, CREB1 / RFU, DNAJC13 / Fold change vs veh, DNAJC13 / RFU, GNAQ / Fold change vs veh, GNAQ / RFU, CDK5R1 / Fold change vs veh, CDK5R1 / RFU, ZRANB3 / Fold change vs veh, ZRANB3 / RFU, CUL4A / Fold change vs veh, CUL4A / RFU, CCNY / Fold change vs veh, CCNY / RFU, UFL1 / Fold change vs veh, UFL1 / RFU, COG3 / Fold change vs veh, COG3 / RFU, DIAPH2 / Fold change vs veh, DIAPH2 / RFU, SKA2 / Fold change vs veh, SKA2 / RFU, AFF3 / Fold change vs veh, AFF3 / RFU, LMF1 / Fold change vs veh, LMF1 / RFU, IPO11 / Fold change vs veh, IPO11 / RFU, DFFB / Fold change vs veh, DFFB / RFU, FOXP1 / Fold change vs veh, FOXP1 / RFU, CARD8 / Fold change vs veh, CARD8 / RFU, STRN3 / Fold change vs veh, STRN3 / RFU, ADK / Fold change vs veh, ADK / RFU, RASSF2 / Fold change vs veh, RASSF2 / RFU, WIPF1 / Fold change vs veh, WIPF1 / RFU, LARP1B / Fold change vs veh, LARP1B / RFU, RASA1 / Fold change vs veh, RASA1 / RFU, RB1 / Fold change vs veh, RB1 / RFU, PPFIA1 / Fold change vs veh, PPFIA1 / RFU, MAT2A / Fold change vs veh, MAT2A / RFU, CCT5 / Fold change vs veh, CCT5 / RFU, WDR92 / Fold change vs veh, WDR92 / RFU, CUX1 / Fold change vs veh, CUX1 / RFU, TTC7A / Fold change vs veh, TTC7A / RFU, TMEM135 / Fold change vs veh, TMEM135 / RFU, DEPTOR / Fold change vs veh, DEPTOR / RFU, CPM / Fold change vs veh, CPM / RFU, DNAJB6 / Fold change vs veh, DNAJB6 / RFU, CACNA2D3 / Fold change vs veh, CACNA2D3 / RFU, DTX4 / Fold change vs veh, DTX4 / RFU, TFCP2 / Fold change vs veh, TFCP2 / RFU, GMCL1 /// GMCL1P1 / Fold change vs veh, GMCL1 /// GMCL1P1 / RFU, AEBP2 / Fold change vs veh, AEBP2 / RFU, SNHG1 /// SNORD22 /// SNORD25 /// SNORD26 /// SNORD27 /// SNORD28 /// SNORD29 /// SNORD31 / Fold change vs veh, SNHG1 /// SNORD22 /// SNORD25 /// SNORD26 /// SNORD27 /// SNORD28 /// SNORD29 /// SNORD31 / Fold change (Aza/veh), C12orf56 (ProbeSet 11735607_a_at) / Fold change (ACY-1035/veh), C12orf56 (ProbeSet 11735607_a_at) / Fold change (Aza/veh), FGFR1OP (ProbeSet 11751329_s_at) / Fold change (ACY-1035/veh), FGFR1OP (ProbeSet 11751329_s_at) / Fold change (Aza/veh), VPS36 (ProbeSet 11739960_a_at) / Fold change (ACY-1035/veh), VPS36 (ProbeSet 11739960_a_at) / RFU SYPL1 (11715823_x_at) / Fold change /veh SYPL1 (11715823_x_at) / RFU IGFBP7 (11715501_s_at) / Fold change /veh IGFBP7 (11715501_s_at) / RFU REEP3 (11722064_at) / Fold change /veh REEP3 (11722064_at) / RFU IGLL1 (11728026_x_at) / Fold change /veh IGLL1 (11728026_x_at): dose or concentration left out as unconfirmed
Details: ProbeSet 11759094_a_at; LIST D

Q: Which “RFU, GNAQ” value does the source give for `Nc1ccc(-c2cccs2)cc1NC(=O)c1ccc2c(c1)cc(C1CC1)n2CCN1CCOCC1` [ACY-1035] here?
A: 492.28 RFU

Source: paper PMC5218480 (PLoS ONE, 2017)
